Structures are written as SMILES.

The experiment deals with T1, CgTD (Corynebacterium glutamicum, UniProt Q04513).
T1 construct: gene ilvA; recombinant, expressed in E. coli BL21(DE3) from pETDuet-1 (pETduet-CgTD)
T1 sequence (Q04513 1-436): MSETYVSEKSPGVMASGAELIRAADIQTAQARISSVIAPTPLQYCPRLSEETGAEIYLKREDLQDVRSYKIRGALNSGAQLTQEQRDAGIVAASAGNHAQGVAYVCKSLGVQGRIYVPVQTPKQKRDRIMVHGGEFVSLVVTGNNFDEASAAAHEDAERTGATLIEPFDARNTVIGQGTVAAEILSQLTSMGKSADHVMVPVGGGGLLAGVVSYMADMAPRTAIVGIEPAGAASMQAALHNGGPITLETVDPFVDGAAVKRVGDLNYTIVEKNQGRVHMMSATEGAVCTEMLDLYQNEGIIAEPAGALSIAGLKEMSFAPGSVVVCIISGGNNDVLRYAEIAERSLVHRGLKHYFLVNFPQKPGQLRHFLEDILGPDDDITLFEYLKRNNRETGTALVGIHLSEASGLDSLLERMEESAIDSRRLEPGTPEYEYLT
Put plainly: TD activity screen of enzyme expressed in E. coli. The note with it: PLP enzyme; deamination to alpha-keto acid 4a.

Regarding `N[C@H](C(=O)O)C(O)c1ccccc1` (stereo partly drawn) [threo-3a, threo-ʟ-phenylserine], the “TD activity screen of enzyme expressed in E. coli” value is “the TD activities toward both threo- and erythro-ʟ-phenylserine (threo/erythro-3a) were tested”. With `N[C@H](C(=O)O)[C@@H](O)c1ccccc1` [erythro-3a, erythro-ʟ-phenylserine], the “TD activity screen of enzyme expressed in E. coli” value is given as “only TD from Corynebacterium glutamicum (CgTD) showed activities toward both configurations”.

For the origin of these results see paper PMC6145935, “Asymmetric assembly of high-value α-functionalized organic acids using a biocatalytic chiral-group-resetting process” (Nature Communications, 2018).
